Experimental findings from US20240174603A1 (Rappta Therapeutics Oy, priority 2021, published 2024) are described below.

For this test, the system named is LNCaP cells. The test is described as follows: LNCaP cell viability assay (MTS). The format is cell-based. As to conditions: Homo sapiens, LNCaP, 48 h, LNCaP cell line. In a few lines: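 GI50 derived by nonlinear four-parameter curve fitting (bottom fixed at zero) of MTS viability data. Prostate LNCaP cells seeded at 5000/well were given compound doses from 1 to 80 µM one day after plating and assayed after 48 h of exposure.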
Regarding `C=CCCC(NS(=O)(=O)c1ccc(OC(F)(F)F)cc1)c1ccc(C(F)(F)F)cc1` (centres unmarked) [Compound 71, 4-(trifluoromethoxy)-N-(1-(4-(trifluoromethyl)phenyl)pent-4-en-1-yl)benzenesulfonamide], growth was halved (GI50) at 20 µM. In other words, the double-digit micromolar range.
In the case of `O=S(=O)(NC(CC1CC1)c1cc(F)cc(Br)c1)c1ccc(OC(F)(F)F)cc1` (centres unmarked) [Compound 72, N-(1-(3-bromo-5-fluorophenyl)-2-cyclopropylethyl)-4-(trifluoromethoxy)benzenesulfonamide] it was 17 µM; in that of `CCC[C@@H](NS(=O)(=O)c1ccc(OC(F)(F)F)cc1)c1ccc2c(c1)OCO2` [Compound 73, (R)—N-(1-(benzo[d][1,3]dioxol-5-yl)butyl)-4-(trifluoromethoxy)benzenesulfonamide], 38 µM.
The same measure for `Cc1ccc(CNS(=O)(=O)c2ccc(OC(F)(F)F)cc2)c(OCC(C)C)c1` [Compound 74, N-(2-isobutoxy-4-methylbenzyl)-4-(trifluoromethoxy)benzenesulfonamide]: 60 µM; for `Cc1ccc(CNS(=O)(=O)c2ccc(OC(F)(F)F)cc2)c(OCC2CC2)c1` [Compound 75, N-(2-(cyclopropylmethoxy)-4-methylbenzyl)-4-(trifluoromethoxy)benzenesulfonamide]: 30 µM.
In the case of `CCOc1ccccc1CNS(=O)(=O)c1ccc(OC(F)(F)F)cc1` [Compound 76, N-(2-ethoxybenzyl)-4-(trifluoromethoxy)benzenesulfonamide] it was 60 µM.
`CC(C)(C)OC(=O)N1CC(CNS(=O)(=O)c2ccc(OC(F)(F)F)cc2)OC(C)(C)C1` (centres unmarked) [Compound 77, Tert-butyl 2,2-dimethyl-6-(((4-(trifluoromethoxy)phenyl)sulfonamido)methyl)morpholine-4-carboxylate] came in with a GI50 of 20 µM.
Regarding `CC(C)(C)Oc1ccccc1CNS(=O)(=O)c1ccc(OC(F)(F)F)cc1` [Compound 78, N-(2-(tert-butoxy)benzyl)-4-(trifluoromethoxy)benzenesulfonamide], it took 46 µM to inhibit growth by half (GI50).
The same measure for `O=S(=O)(NCCCN(Cc1ccco1)CC1CCCO1)c1ccc(OC(F)(F)F)cc1` (centres unmarked) [Compound 79, N-(3-((furan-2-ylmethyl)((tetrahydrofuran-2-yl)methyl)amino)propyl)-4-(trifluoromethoxy)benzenesulfonamide]: 49 µM; for `O=S(=O)(NCC1(c2ccc(Br)cc2Cl)CC1)c1ccc(OC(F)(F)F)cc1` [Compound 80, N-((1-(4-bromo-2-chlorophenyl)cyclopropyl)methyl)-4-(trifluoromethoxy)benzenesulfonamide]: 23 µM; for `O=S(=O)(NCC1(Cc2ccc(Br)cc2)CC1)c1ccc(OC(F)(F)F)cc1` [Compound 81, N-((1-(4-bromobenzyl)cyclopropyl)methyl)-4-(trifluoromethoxy)benzenesulfonamide]: 40 µM.
As for `CS(=O)(=O)c1cc(CNS(=O)(=O)c2ccc(OC(F)(F)F)cc2)cc(C(F)(F)F)c1` [Compound 82, N-(3-(methylsulfonyl)-5-(trifluoromethyl)benzyl)-4-(trifluoromethoxy)benzenesulfonamide], it took 64 µM to inhibit growth by half (GI50).
In the case of `O=S(=O)(NCC1(CCOCc2ccccc2)CC1)c1ccc(OC(F)(F)F)cc1` [Compound 83, N-((1-(2-(benzyloxy)ethyl)cyclopropyl)methyl)-4-(trifluoromethoxy)benzenesulfonamide] it was 38 µM; in that of `CC1(C)CC1(CNS(=O)(=O)c1ccc(OC(F)(F)F)cc1)c1ccc(F)cc1F` (centres unmarked) [Compound 84, N-((1-(2,4-difluorophenyl)-2,2-dimethylcyclopropyl)methyl)-4-(trifluoromethoxy)benzenesulfonamide], 18 µM.
In the case of `O=S(=O)(N[C@H](Cc1cc(F)c(F)cc1F)CC(F)(F)F)c1ccc(OC(F)(F)F)cc1` [Compound 85, (R)—N-(4,4,4-trifluoro-1-(2,4,5-trifluorophenyl)butan-2-yl)-4-(trifluoromethoxy)benzenesulfonamide] it was 26 µM; in that of `O=S(=O)(NC(c1ccc(Cl)cc1)C1CCCC1)c1ccc(OC(F)(F)F)cc1` (centres unmarked) [Compound 86, N-((4-chlorophenyl)(cyclopentyl)methyl)-4-(trifluoromethoxy)benzenesulfonamide], 75 µM; in that of `CC1CCN(c2ccccc2CNS(=O)(=O)c2ccc(OC(F)(F)F)cc2)CC1` [Compound 87, N-(2-(4-methylpiperidin-1-yl)benzyl)-4-(trifluoromethoxy)benzenesulfonamide], 23 µM.
The same measure for `O=S(=O)(NCC1(c2cc(C(F)(F)F)ccc2Cl)CC1)c1ccc(OC(F)(F)F)cc1` [Compound 88, N-((1-(2-chloro-5-(trifluoromethyl)phenyl)cyclopropyl)methyl)-4-(trifluoromethoxy)benzenesulfonamide]: 25 µM; for `O=S(=O)(NCCCOCCOCc1ccccc1)c1ccc(OC(F)(F)F)cc1` [Compound 89, N-(3-(2-(benzyloxy)ethoxy)propyl)-4-(trifluoromethoxy)benzenesulfonamide]: 48 µM.
Take `CCn1nc(C(F)(F)F)cc1COCCNS(=O)(=O)c1ccc(OC(F)(F)F)cc1` [Compound 90, N-(2-((1-ethyl-3-(trifluoromethyl)-1H-pyrazol-5-yl)methoxy)ethyl)-4-(trifluoromethoxy)benzenesulfonamide]: the GI50 is 28 µM.
The same measure for `O=S(=O)(NCC1CN(Cc2ccccc2)CC12CCC2)c1ccc(OC(F)(F)F)cc1` (centres unmarked) [Compound 91, N-((6-benzyl-6-azaspiro[3.4]octan-8-yl)methyl)-4-(trifluoromethoxy)benzenesulfonamide]: 28 µM; for `COC(=O)C(NS(=O)(=O)c1ccc(OC(F)(F)F)cc1)c1ccccc1Br` (centres unmarked) [Compound 92, Methyl 2-(2-bromophenyl)-2-((4-(trifluoromethoxy)phenyl)sulfonamido)acetate]: 42 µM; for `CC(CC1CCCCN1C)NS(=O)(=O)c1ccc(OC(F)(F)F)cc1` (centres unmarked) [Compound 93, N-(1-(1-methylpiperidin-2-yl)propan-2-yl)-4-(trifluoromethoxy)benzenesulfonamide]: 34 µM.
The same measure for `CCOC(=O)CC(NS(=O)(=O)c1ccc(OC(F)(F)F)cc1)c1cccc(C(F)(F)F)c1` (centres unmarked) [Compound 94, Ethyl 3-((4-(trifluoromethoxy)phenyl)sulfonamido)-3-(3-(trifluoromethyl)phenyl)propanoate]: 25 µM; for `CC1CCCCC1OCCNS(=O)(=O)c1ccc(OC(F)(F)F)cc1` (centres unmarked) [Compound 95, N-(2-((2-methylcyclohexyl)oxy)ethyl)-4-(trifluoromethoxy)benzenesulfonamide]: 15 µM; for `O=S(=O)(NCCNS(=O)(=O)c1ccc(F)c(Cl)c1)c1ccc(OC(F)(F)F)cc1` [Compound 96, 3-chloro-4-fluoro-N-(2-((4-(trifluoromethoxy)phenyl)sulfonamido)ethyl)benzenesulfonamide]: 31 µM.
In turn, `O=S(=O)(NCCNS(=O)(=O)c1ccc(Cl)cc1F)c1ccc(OC(F)(F)F)cc1` [Compound 97, 4-chloro-2-fluoro-N-(2-((4-(trifluoromethoxy)phenyl)sulfonamido)ethyl)benzenesulfonamide] displayed a GI50 of 41 µM.
On to `CN(C)CC1(CNS(=O)(=O)c2ccc(OC(F)(F)F)cc2)CC1` [Compound 98, N-((1-((dimethylamino)methyl)cyclopropyl)methyl)-4-(trifluoromethoxy)benzenesulfonamide], for which the GI50 was 29 µM. The GI50 values of the last two compounds are within 1.5-fold of each other.
In the case of `CC1CCCC(CNS(=O)(=O)c2ccc(OC(F)(F)F)cc2)(N(C)C)C1` (centres unmarked) [Compound 99, N-((1-(dimethylamino)-3-methylcyclohexyl)methyl)-4-(trifluoromethoxy)benzenesulfonamide] it was 45 µM.
In the case of `O=S(=O)(NCCN1c2ccccc2NS1(=O)=O)c1ccc(OC(F)(F)F)cc1` [Compound 100, N-(2-(2,2-dioxidobenzo[c] [1,2,5]thiadiazol-1(3H)-yl)ethyl)-4-(trifluoromethoxy)benzenesulfonamide] it was 61 µM.
In the case of `O=S(=O)(NC(c1ccc(F)cc1)C1CCCO1)c1ccc(OC(F)(F)F)cc1` (centres unmarked) [Compound 101, N-((4-fluorophenyl)(tetrahydrofuran-2-yl)methyl)-4-(trifluoromethoxy)benzenesulfonamide] it was 33 µM; in that of `Cc1ccccc1C(NS(=O)(=O)c1ccc(OC(F)(F)F)cc1)C1CCCC(C)C1` (centres unmarked) [Compound 102, N-((3-methylcyclohexyl)(o-tolyl)methyl)-4-(trifluoromethoxy)benzenesulfonamide], 14 µM; in that of `CC1CC1C(NS(=O)(=O)c1ccc(OC(F)(F)F)cc1)c1ccccc1` (centres unmarked) [Compound 103, N-((2-methylcyclopropyl)(phenyl)methyl)-4-(trifluoromethoxy)benzenesulfonamide], 20 µM.
`Cc1ccc(C(NS(=O)(=O)c2ccc(OC(F)(F)F)cc2)C(C)S(C)(=O)=O)cc1` (centres unmarked) [Compound 104, N-(2-(methylsulfonyl)-1-(p-tolyl)propyl)-4-(trifluoromethoxy)benzenesulfonamide] yielded a GI50 of 49 µM.
Compound `CC(NS(=O)(=O)c1ccc(OC(F)(F)F)cc1)C(NC(=O)OC(C)(C)C)c1ccccc1` (centres unmarked) [Compound 105, Tert-butyl (1-phenyl-2-((4-(trifluoromethoxy)phenyl)sulfonamido)propyl)carbamate] displayed a GI50 of 37 µM.
Take `CCC(NS(=O)(=O)c1ccc(OC(F)(F)F)cc1)(C(=O)OC)c1ccccc1` (centres unmarked) [Compound 107, Methyl 2-phenyl-2-((4-(trifluoromethoxy)phenyl)sulfonamido)butanoate]: the GI50 amounted to 69 µM.
In the case of `O=[N+]([O-])c1ccc(S(=O)(=O)NCCNS(=O)(=O)c2ccc(OC(F)(F)F)cc2)cc1` [Compound 108, 4-nitro-N-(2-((4-(trifluoromethoxy)phenyl)sulfonamido)ethyl)benzenesulfonamide] it was 65 µM.
The same measure for `CC(C)CC(NS(=O)(=O)c1ccc(OC(F)(F)F)cc1)C(=O)Nc1nccs1` (centres unmarked) [Compound 109, 4-methyl-N-(thiazol-2-yl)-2-((4-(trifluoromethoxy)phenyl)sulfonamido)pentanamide]: 25 µM.

What is called GI50 is the concentration giving 50% growth inhibition. Low readings indicate greater sensitivity of the cells, high ones lower sensitivity of the cells.
